{"source": "paper PMC6409966", "about": "(2019)", "system": "thiolated MG binding aptamer (RNA, aptamer) GGAUCCCGACUGGCGAGAGCCAGGUAACGAAUGGAUCC", "test": "cyclic voltammetry / DPV of captured MG on aptamer electrode; EIS", "details": "Na+ / K+ (Na2HPO4/KH2PO4 buffer); phosphate buffer pH 7.4, room temperature, 2 h; 1.0 and 10 μM MG; immobilised aptamer"}
{"smiles": "CN(C)c1ccc(C(=C2C=CC(=[N+](C)C)C=C2)c2ccccc2)cc1", "values": [{"measurement": "binding", "value": "yes"}]}
